Consider 6 compounds from PMC4331153, “In Vitro Inhibitory and Cytotoxic Activity of MFM 501, a Novel Codonopsinine Derivative, against Methicillin-Resistant Staphylococcus aureus Clinical Isolates” (BioMed Research International, 2015).

In brackets after ≈: the same amount, converted by molar mass. Read-outs that look alike come from different tables or passages of the source.

What all share (type): cell-based
The subject of experiment [1] is S. aureus isolates (MRSA and MSSA). The experiment in a line: MIC determination, S. aureus isolates (MRSA and MSSA). The note with it: Staphylococcus aureus, ATCC 25923 / ATCC 33591 / MRSA / MSSA; all four test isolates (N441, U949, ATCC 25923, ATCC 33591), preliminary evaluation.
The subject of another experiment is S. aureus isolate U949. Description: MIC determination, broth microdilution, isolate U949. The note with it: Staphylococcus aureus. On the technique in general: Dilution methods test growth across graded concentrations, often in twofold steps.
A further experiment has as its system S. aureus isolate N441. The experiment in a line: MIC determination, broth microdilution, isolate N441. The note with it: Staphylococcus aureus.
In experiment [2] the test system is S. aureus ATCC 33591 (MRSA reference strain). The experiment in a line: MIC determination, broth microdilution, ATCC 33591. The following applies: Staphylococcus aureus.
Experiment [3] relates to S. aureus ATCC 25923 (MSSA reference strain). Description: MIC determination, broth microdilution, ATCC 25923. The note with it: Staphylococcus aureus.

One may read the MIC as the least concentration at which growth counts as inhibited. Consider `CCCCCCC1C(C(=O)OCC)=C(O)C(=O)N1C` (stereo not drawn) [16e], for which the MIC in experiment [1] was 125 to 250 µg/mL (≈ 464 to 928 µM); in the experiment with S. aureus isolate U949 (isolate U949, read-out: MIC), 125 µg/mL (≈ 464 µM); in the experiment with S. aureus isolate N441 (isolate N441, read-out: MIC), 125 µg/mL (≈ 464 µM); in experiment [2] (ATCC 33591, read-out: MIC), 125 µg/mL (≈ 464 µM); in experiment [3] (ATCC 25923, read-out: MIC) it was 250 µg/mL (≈ 928 µM).
Take `CCOC(=O)C1=C(O)C(=O)N(Cc2ccccc2)C1c1ccc(OC)cc1` (stereo not drawn) [26e]: the MIC in experiment [1] is 125 to 250 µg/mL (≈ 340 to 680 µM); in the experiment with S. aureus isolate U949 (isolate U949, read-out: MIC), 250 µg/mL (≈ 680 µM); with S. aureus isolate N441 (isolate N441, read-out: MIC), 125 µg/mL (≈ 340 µM); in experiment [2] (ATCC 33591, read-out: MIC), 125 µg/mL (≈ 340 µM); in experiment [3] (ATCC 25923, read-out: MIC) it was 250 µg/mL (≈ 680 µM).
Turning to `C=CCOc1ccc(C2C(C(=O)OCC)=C(O)C(=O)N2C)cc1` (stereo not drawn) [27e], the MIC with S. aureus isolate U949 (isolate U949, read-out: MIC) is over 1000 µg/mL; in the experiment with S. aureus isolate N441 (isolate N441, read-out: MIC), over 1000 µg/mL; in experiment [2] (ATCC 33591, read-out: MIC), over 1000 µg/mL; in experiment [3] (ATCC 25923, read-out: MIC), over 1000 µg/mL.
Take `Cc1onc(-c2ccccc2)c1C(=O)N[C@@H]1C(=O)N2[C@@H]1SC(C)(C)[C@@H]2C(=O)O` [Oxacillin, reference compound]: the MIC in the experiment on S. aureus isolate U949 (isolate U949, read-out: MIC) is 500 µg/mL (≈ 1250 µM); in the experiment with S. aureus isolate N441 (isolate N441, read-out: MIC), 500 µg/mL (≈ 1250 µM); in experiment [2] (ATCC 33591, read-out: MIC), 250 µg/mL (≈ 623 µM); in experiment [3] (ATCC 25923, read-out: MIC), 0.24 µg/mL (≈ 0.598 µM).
`CN[C@H](CC(C)C)C(=O)N[C@H]1C(=O)N[C@@H](CC(N)=O)C(=O)N[C@H]2C(=O)N[C@H]3C(=O)N[C@H](C(=O)N[C@H](C(=O)O)c4cc(O)cc(O)c4-c4cc3ccc4O)[C@H](O)c3ccc(c(Cl)c3)Oc3cc2cc(c3O[C@@H]2O[C@H](CO)[C@@H](O)[C@H](O)[C@H]2O[C@H]2C[C@](C)(N)[C@H](O)[C@H](C)O2)Oc2ccc(cc2Cl)[C@H]1O` [Vancomycin, reference compound]: the MIC is 1.56 µg/mL (≈ 1.08 µM) in the experiment with S. aureus isolate U949, 1.56 µg/mL (≈ 1.08 µM) against S. aureus isolate N441, 3.13 µg/mL (≈ 2.16 µM) in experiment [2] and 0.78 µg/mL (≈ 0.538 µM) in experiment [3].
`CCOC(=O)C1=C(O)C(=O)N(C)C1c1ccc(C)cc1` (stereo not drawn) [compound 19e]: the MIC in experiment [1] is 500 to 1000 µg/mL (≈ 1820 to 3630 µM); with S. aureus isolate U949 (isolate U949, read-out: MIC), 500 µg/mL (≈ 1820 µM); in the experiment on S. aureus isolate N441 (isolate N441, read-out: MIC), 500 µg/mL (≈ 1820 µM); in experiment [2] (ATCC 33591, read-out: MIC) it was 500 µg/mL (≈ 1820 µM); in experiment [3] (ATCC 25923, read-out: MIC), 1000 µg/mL (≈ 3630 µM).
